The test deals with MAGL (Mus musculus (Mouse), UniProt O35678). Put plainly: In vitro competitive activity-based protein profiling, mouse brain proteome. The settings on record: for IC50: mouse brain. The test is classed as biochemical.

The text below walks through data of patent US11142526B2, “Spirocycle compounds and methods of making and using same” (H. Lundbeck A/S, priority 2017, dated 2021).

The term IC50 denotes the concentration that inhibits the measured activity by half. The term inhibition denotes the drop in the measured response relative to a control, in per cent.

SMILES strings stand for the structures. A value given as a limit tells only on which side of the number the result lay.

MAGL, sequence (O35678 whole entry): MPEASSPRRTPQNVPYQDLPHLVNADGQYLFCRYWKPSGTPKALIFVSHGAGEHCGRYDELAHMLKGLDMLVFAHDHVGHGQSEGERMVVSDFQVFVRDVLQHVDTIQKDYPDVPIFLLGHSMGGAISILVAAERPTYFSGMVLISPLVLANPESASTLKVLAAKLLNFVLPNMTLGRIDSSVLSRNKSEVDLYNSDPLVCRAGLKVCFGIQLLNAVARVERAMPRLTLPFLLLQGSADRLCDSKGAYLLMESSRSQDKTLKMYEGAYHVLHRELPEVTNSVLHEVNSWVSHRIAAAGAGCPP

For `CC(C)n1cc(CN2CCCC23CCN(C(=O)OC(C(F)(F)F)C(F)(F)F)CC3)c(-c2cccc(N3CCCC3)c2)n1` [Example 8, 1,1,1,3,3,3-Hexafluoropropan-2-yl 1-((1-isopropyl-3-(3-(pyrrolidin-1-yl)phenyl)-1H-pyrazol-4-yl)methyl)-1,8-diazaspiro[4.5]decane-8-carboxylate], the IC50 is 100 to 1000 nM. For the same compound, the “MAGL % Inhibition at 1 uM (Mouse)” value (1 uM, mouse) was “### (% inhibition is greater than or equal to 75%)”.

Turning to `O=C(OC(C(F)(F)F)C(F)(F)F)N1CCC2(CCCN2C(=O)c2cccnc2)CC1` [Example 13, 1,1,1,3,3,3-Hexafluoropropan-2-yl 1-nicotinoyl-1,8-diazaspiro[4.5]decane-8-carboxylate], the inhibition at 1 µM (1 uM, mouse) is > 75%.

Take `Cc1ccc2[nH]c(C(=O)N3CCCC34CCN(C(=O)OC(C(F)(F)F)C(F)(F)F)CC4)cc2c1` [Example 14, 1,1,1,3,3,3-Hexafluoropropan-2-yl 1-(5-methyl-1H-indole-2-carbonyl)-1,8-diazaspiro[4.5]decane-8-carboxylate]: the IC50 was < 100 nM. In addition, the inhibition at 1 µM (1 uM, mouse) is > 75%. Where the note is “1 uM, mouse”, `O=C(O)c1ccc2[nH]c(CN3CCCC34CCN(C(=O)OC(C(F)(F)F)C(F)(F)F)CC4)cc2c1` [Example 15, 2-((8-(((1,1,1,3,3,3-Hexafluoropropan-2-yl)oxy)carbonyl)-1,8-diazaspiro[4.5]decan-1-yl)methyl)-1H-indole-5-carboxylic acid] gave an inhibition at 1 µM of 25 to 75%. In turn, `O=C(OC(C(F)(F)F)C(F)(F)F)N1CCC2(CCCN2Cc2cc3c(Cl)cccc3s2)CC1` [Example 44, 1,1,1,3,3,3-Hexafluoropropan-2-yl 1-((4-chlorobenzo[b]thiophen-2-yl)methyl)-1,8-diazaspiro[4.5] decane-8-carboxylate] returned an IC50 of 100 to 1000 nM. Besides, where the note is “1 uM, mouse”, the inhibition at 1 µM was > 75%. For `O=C(OC(C(F)(F)F)C(F)(F)F)N1CCC2(CCCN2Cc2c[nH]c3cccc(Cl)c23)CC1` [Example 45, 1,1,1,3,3,3-Hexafluoropropan-2-yl 1-((4-chloro-1H-indol-3-yl)methyl)-1,8-diazaspiro[4.5] decane-8-carboxylate], the IC50 lay within 100 to 1000 nM. `O=C(OC(C(F)(F)F)C(F)(F)F)N1CCC2(CCCN2Cc2cc(-c3ccc(Cl)cc3)on2)CC1` [Example 47, 1,1,1,3,3,3-Hexafluoropropan-2-yl 1-((5-(4-chlorophenyl)isoxazol-3-yl)methyl)-1,8-diazaspiro[4.5] decane-8-carboxylate]: the IC50 was < 100 nM. Moreover, the inhibition at 1 µM (1 uM, mouse) is > 75%. With `Cc1c(CN2CCCC23CCN(C(=O)OC(C(F)(F)F)C(F)(F)F)CC3)[nH]c2ccc(Cl)cc12` [Example 48, 1,1,1,3,3,3-Hexafluoropropan-2-yl 1-((5-chloro-3-methyl-1H-indol-2-yl)methyl)-1,8-diazaspiro[4.5] decane-8-carboxylate], the inhibition at 1 µM (1 uM, mouse) was > 75%. `Cc1c(CN(C)C2(C)CCN(C(=O)OC(C(F)(F)F)C(F)(F)F)CC2)sc2ccccc12` [Example 50, 1,1,1,3,3,3-Hexafluoropropan-2-yl 4-methyl-4-(methyl((3-methylbenzo[b]thiophen-2-yl)methyl)amino) piperidine-1-carboxylate] registered an IC50 of 100 to 1000 nM. Moreover, the inhibition at 1 µM (1 uM, mouse) was > 75%.

Consider `COc1cccc2cc(CN3CCCC34CCN(C(=O)OC(C(F)(F)F)C(F)(F)F)CC4)[nH]c12` [Example 53, 1,1,1,3,3,3-Hexafluoropropan-2-yl 1-((7-methoxy-1H-indol-2-yl)methyl)-1,8-diazaspiro[4.5] decane-8-carboxylate], for which the inhibition at 1 µM (1 uM, mouse) is > 75%. With `O=C(OC(C(F)(F)F)C(F)(F)F)N1CCC2(CCCN2Cc2ccc3cc(Cl)ccc3n2)CC1` [Example 55, 1,1,1,3,3.3-Hexafluoropropan-2-yl 1-((6-chloroquinolin-2-yl)methyl)-1,8-diazaspiro[4.5] decane-8-carboxylate], the IC50 is < 100 nM. The inhibition at 1 µM (1 uM, mouse) was > 75%.

As to `Cc1ccc2cc(C(=O)N3CCCC34CCN(C(=O)OC(C(F)(F)F)C(F)(F)F)CC4)sc2c1` [Example 59, 1,1,1,3,3,3-Hexafluoropropan-2-yl 1-(6-methylbenzo[b]thiophene-2-carbonyl)-1,8-diazaspiro[4.5] decane-8-carboxylate], the inhibition at 1 µM (1 uM, mouse) was > 75%. `O=C(OC(C(F)(F)F)C(F)(F)F)N1CCC2(CCN(Cc3cccnc3)C2)CC1` [Example 64, 1,1,1,3,3,3-Hexafluoropropan-2-yl 2-(pyridin-3-ylmethyl)-2,8-diazaspiro[4.5] decane-8-carboxylate]: the IC50 was 100 to 1000 nM. For the setting “1 uM, mouse”, the inhibition at 1 µM is > 75%.

`O=C(OC(C(F)(F)F)C(F)(F)F)N1CCC2(CCN(Cc3ncccn3)C2)CC1` [Example 65, 1,1,1,3,3,3-Hexafluoropropan-2-yl 2-(pyrimidin-2-ylmethyl)-2,8-diazaspiro[4.5] decane-8-carboxylate]: where the note is “1 uM, mouse”, the inhibition at 1 µM was > 75%. For `O=C(OC(C(F)(F)F)C(F)(F)F)N1CCC2(CCN(Cc3nccs3)C2)CC1` [Example 66, 1,1,1,3,3,3-Hexafluoropropan-2-yl 2-(thiazol-2-ylmethyl)-2,8-diazaspiro [4.5]decane-8-carboxylate], the IC50 was < 100 nM. For the same compound, the inhibition at 1 µM (1 uM, mouse) was > 75%. On the same counts, the results for `O=C(OC(C(F)(F)F)C(F)(F)F)N1CCC2(CCN(Cc3cncnc3)C2)CC1` [Example 67, 1,1,1,3,3,3-Hexafluoropropan-2-yl 2-(pyrimidin-5-ylmethyl)-2,8-diazaspiro[4.5] decane-8-carboxylate] are 100 to 1000 nM and > 75%. Compound `Cn1cc(C(=O)N2CCCC23CCN(C(=O)OC(C(F)(F)F)C(F)(F)F)CC3)cn1` [Example 70, 1,1,1,3,3,3-Hexafluoropropan-2-yl 1-(1-methyl-1H-pyrazole-4-carbonyl)-1,8-diazaspiro[4.5] decane-8-carboxylate] came in with an IC50 of 100 to 1000 nM. Further, the inhibition at 1 µM (1 uM, mouse) was > 75%. On the same counts, the results for `O=C(OC(C(F)(F)F)C(F)(F)F)N1CCC2(CCCN2C(=O)c2cnn(-c3ccccc3)c2)CC1` [Example 72, 1,1,1,3,3,3-Hexafluoropropan-2-yl 1-(1-phenyl-1H-pyrazole-4-carbonyl)-1,8-diazaspiro[4.5] decane-8-carboxylate] are < 100 nM and > 75%. On the same counts, the results for `O=C(OC(C(F)(F)F)C(F)(F)F)N1CCC2(CCN(Cc3ccccn3)C2)CC1` [Example 73, 1,1,1,3,3,3-Hexafluoropropan-2-yl 2-(pyridin-2-ylmethyl)-2,8-diazaspiro [4.5]decane-8-carboxylate] are 100 to 1000 nM and > 75%. On the same counts, the results for `O=C(OC(C(F)(F)F)C(F)(F)F)N1CCC2(CCN(Cc3ccncn3)C2)CC1` [Example 74, 1,1,1,3,3,3-Hexafluoropropan-2-yl 2-(pyrimidin-4-ylmethyl)-2,8-diazaspiro[4.5] decane-8-carboxylate] are < 100 nM and > 75%. Turning to `O=C(OC(C(F)(F)F)C(F)(F)F)N1CCC2(CCCN2C(=O)c2cc3ccccc3[nH]2)CC1` [Example 76, 1,1,1,3,3,3-Hexafluoropropan-2-yl 1-(1H-indole-2-carbonyl)-1,8-diazaspiro[4.5] decane-8-carboxylate], the IC50 is < 100 nM. In addition, for the setting “1 uM, mouse”, the inhibition at 1 µM is > 75%. On the same counts, the results for `O=C(OC(C(F)(F)F)C(F)(F)F)N1CCC2(CCCN2C(=O)c2cnn(-c3ccc(Cl)cc3)c2)CC1` [Example 78, 1,1,1,3,3,3-Hexafluoropropan-2-yl 1-(1-(4-chlorophenyl)-1H-pyrazole-4-carbonyl)-1,8-diazaspiro[4.5] decane-8-carboxylate] are < 100 nM and > 75%. On the same counts, the results for `O=C(OC(C(F)(F)F)C(F)(F)F)N1CCC2(CCCN2C(=O)c2cc3ccccc3s2)CC1` [Example 80, 1,1,1,3,3,3-Hexafluoropropan-2-yl 1-(benzo[b]thiophene-2-carbonyl)-1,8-diazaspiro[4.5] decane-8-carboxylate] are < 100 nM and > 75%. On the same counts, the results for `CC(C)n1ccc(C(=O)N2CCCC23CCN(C(=O)OC(C(F)(F)F)C(F)(F)F)CC3)n1` [Example 81, 1,1,1,3,3,3-Hexafluoropropan-2-yl 1-(1-isopropyl-1H-pyrazole-3-carbonyl)-1,8-diazaspiro[4.5] decane-8-carboxylate] are < 100 nM and > 75%. With `O=C(OC(C(F)(F)F)C(F)(F)F)N1CCC2(CCCN2C(=O)c2ccn(-c3ccccc3)n2)CC1` [Example 82, 1,1,1,3,3,3-Hexafluoropropan-2-yl 1-(1-phenyl-1H-pyrazole-3-carbonyl)-1,8-diazaspiro[4.5] decane-8-carboxylate], the IC50 was < 100 nM. In addition, the inhibition at 1 µM (1 uM, mouse) was > 75%. Turning to `O=C(OC(C(F)(F)F)C(F)(F)F)N1CCC2(CCCN2C(=O)c2cc3ccccc3o2)CC1` [Example 83, 1,1,1,3,3,3-Hexafluoropropan-2-yl 1-(benzofuran-2-carbonyl)-1,8-diazaspiro[4.5] decane-8-carboxylate], the 50% inhibitory concentration (IC50) is < 100 nM. Further, the inhibition at 1 µM (1 uM, mouse) is > 75%. On the same counts, the results for `O=C(OC(C(F)(F)F)C(F)(F)F)N1CCC2(CCCN2C(=O)c2nc3ccccc3o2)CC1` [Example 84, 1,1,1,3,3,3-Hexafluoropropan-2-yl 1-(benzo[d]oxazole-2-carbonyl)-1,8-diazaspiro[4.5] decane-8-carboxylate] are < 100 nM and > 75%. In the case of `O=C(OC(C(F)(F)F)C(F)(F)F)N1CCC2(CCCN2C(=O)c2ccc3[nH]ccc3c2)CC1` [Example 89, 1,1,1,3,3,3-Hexafluoropropan-2-yl 1-(1H-indole-5-carbonyl)-1,8-diazaspiro[4.5] decane-8-carboxylate], the IC50 was < 100 nM. The inhibition at 1 µM (1 uM, mouse) was > 75%. With `O=C(OC(C(F)(F)F)C(F)(F)F)N1CCC2(CCCN2C(=O)c2ccc3sccc3c2)CC1` [Example 90, 1,1,1,3,3,3-Hexafluoropropan-2-yl 1-(benzo[b]thiophene-5-carbonyl)-1,8-diazaspiro[4.5] decane-8-carboxylate], the IC50 was < 100 nM. Further, the inhibition at 1 µM (1 uM, mouse) is > 75%.
